Laboratory results from patent US20070082880A1 (priority 2005, published 2007).

target: T1, human PKCθ full length enzyme (Homo sapiens, UniProt Q04759); assay: PKCθ IMAP Assay; assay type: biochemical; conditions: average value when one or more samples were tested; ATP 6 uM, PKCθ 1 nM
T1 construct: human PKCθ full length enzyme (Panvera Catalog No. P2996); purchased Panvera P2996
Outline: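 Full-length human PKCθ (1 nM final) with 6 uM ATP and 100 nM 5FAM-labelled peptide, 5% DMSO, 3.0 mM DTT in reaction buffer. 25 min at room temperature; IMAP bead binding 20 min, fluorescence polarization read. Compounds 2:1 serially diluted; no-ATP and no-enzyme wells as controls.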

T1 sequence (Q04759 whole entry): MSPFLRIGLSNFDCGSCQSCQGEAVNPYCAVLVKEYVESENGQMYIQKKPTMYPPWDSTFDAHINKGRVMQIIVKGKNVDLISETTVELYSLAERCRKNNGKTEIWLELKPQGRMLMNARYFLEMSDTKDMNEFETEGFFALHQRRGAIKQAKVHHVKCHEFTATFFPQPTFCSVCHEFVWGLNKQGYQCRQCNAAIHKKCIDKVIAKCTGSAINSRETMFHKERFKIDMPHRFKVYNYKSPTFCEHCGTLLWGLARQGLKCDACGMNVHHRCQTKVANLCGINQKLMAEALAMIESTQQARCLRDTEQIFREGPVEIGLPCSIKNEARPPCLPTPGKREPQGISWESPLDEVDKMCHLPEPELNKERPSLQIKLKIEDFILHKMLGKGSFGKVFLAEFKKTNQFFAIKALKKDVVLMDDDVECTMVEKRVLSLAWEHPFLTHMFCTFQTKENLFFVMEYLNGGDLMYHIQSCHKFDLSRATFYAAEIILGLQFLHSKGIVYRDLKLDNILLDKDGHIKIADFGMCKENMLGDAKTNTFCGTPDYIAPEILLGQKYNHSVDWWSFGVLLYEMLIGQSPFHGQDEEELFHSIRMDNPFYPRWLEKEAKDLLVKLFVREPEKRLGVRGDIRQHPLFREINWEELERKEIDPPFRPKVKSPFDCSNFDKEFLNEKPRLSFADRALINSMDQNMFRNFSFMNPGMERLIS

Structure (SMILES) | IC50 [nM]
CCOc1ccc(CN(C)C)cc1-c1cc2c(Nc3ccc4[nH]ccc4c3C)c(C#N)cnc2s1 [Compound 367, 2-{5-[(dimethylamino)methyl]-2-ethoxyphenyl}-4-[(4-methyl-1H-indol-5-yl)amino]thieno[2,3-b]pyridine-5-carbonitrile] | 7
Cc1ccc(CN(C)C)cc1-c1cc2c(Nc3ccc4[nH]ccc4c3C)c(C#N)cnc2s1 [Compound 368, 2-{5-[(dimethylamino)methyl]-2-methylphenyl}-4-[(4-methyl-1H-indol-5-yl)amino]thieno[2,3-b]pyridine-5-carbonitrile] | 100
COc1ccc(C(=O)N(C)C)cc1-c1cc2c(Nc3ccc4[nH]ccc4c3C)c(C#N)cnc2s1 [Compound 369, 3-{5-cyano-4-[(4-methyl-1H-indol-5-yl)amino]thieno[2,3-b]pyridin-2-yl}-4-methoxy-N,N-dimethylbenzamide] | 30
CS(=O)(=O)Nc1ccccc1-c1cc2c(Nc3ccc4[nH]ccc4c3)c(C#N)cnc2s1 [Compound 370, N-{2-[5-cyano-4-(1H-indol-5-ylamino)thieno[2,3-b]pyridin-2-yl]phenyl}methanesulfonamide] | 1010
Cc1c(Nc2c(C#N)cnc3sc(-c4ccccc4NS(C)(=O)=O)cc23)ccc2[nH]ccc12 [Compound 371, N-(2-{5-cyano-4-[(4-methyl-1H-indol-5-yl)amino]thieno[2,3-b]pyridin-2-yl}phenyl)methanesulfonamide] | 182
Cc1c(Nc2c(C#N)cnc3sc(-c4ccc(NS(C)(=O)=O)cc4)c(C)c23)ccc2[nH]ccc12 [Compound 372, N-(4-{5-cyano-3-methyl-4-[(4-methyl-1H-indol-5-yl)amino]thieno[2,3-b]pyridin-2-yl}phenyl)methanesulfonamide] | 627
Cc1c(Nc2c(C#N)cnc3sc(-c4cc5ccccc5s4)cc23)ccc2[nH]ccc12 [Compound 373, 2-(1-benzothien-2-yl)-4-[(4-methyl-1H-indol-5-yl)amino]thieno[2,3-b]pyridine-5-carbonitrile] | 57
Cc1c(Nc2c(C#N)cnc3sc(-c4cc5cc(C=O)ccc5s4)cc23)ccc2[nH]ccc12 [Compound 374, 2-(5-formyl-1-benzothien-2-yl)-4-[(4-methyl-1H-indol-5-yl)amino]thieno[2,3-b]pyridine-5-carbonitrile] | 140
Cc1c(Nc2c(C#N)cnc3sc(-c4cccc(S(C)(=O)=O)c4)cc23)ccc2[nH]ccc12 [Compound 375, 4-[(4-methyl-1H-indol-5-yl)amino]-2-[3-(methylsulfonyl)phenyl]thieno[2,3-b]pyridine-5-carbonitrile] | 41
Cc1c(Nc2c(C#N)cnc3sc(-c4ccc(S(C)(=O)=O)cc4)cc23)ccc2[nH]ccc12 [Compound 376, 4-[(4-methyl-1H-indol-5-yl)amino]-2-[4-(methylsulfonyl)phenyl]thieno[2,3-b]pyridine-5-carbonitrile] | 26
Cc1c(Nc2c(C#N)cnc3sc(-c4cccc(Br)c4)cc23)ccc2[nH]ccc12 [Compound 377, 2-(3-bromophenyl)-4-[(4-methyl-1H-indol-5-yl)amino]thieno[2,3-b]pyridine-5-carbonitrile] | 141
Cc1cc(C=O)cc(-c2cc3c(Nc4ccc5[nH]ccc5c4C)c(C#N)cnc3s2)c1 [Compound 378, 2-(3-formyl-5-methylphenyl)-4-[(4-methyl-1H-indol-5-yl)amino]thieno[2,3-b]pyridine-5-carbonitrile] | 98
CCCOc1c(C=O)cc(C)cc1-c1cc2c(Nc3ccc4[nH]ccc4c3C)c(C#N)cnc2s1 [Compound 379, 2-(3-formyl-5-methyl-2-propoxyphenyl)-4-[(4-methyl-1H-indol-5-yl)amino]thieno[2,3-b]pyridine-5-carbonitrile] | 169
Cc1c(Nc2c(C#N)cnc3sc(-c4cnc5ccccc5c4)cc23)ccc2[nH]ccc12 [Compound 380, 4-[(4-methyl-1H-indol-5-yl)amino]-2-quinolin-3-ylthieno[2,3-b]pyridine-5-carbonitrile] | 16
CCCCOc1ccccc1-c1cc2c(Nc3ccc4[nH]ccc4c3C)c(C#N)cnc2s1 [Compound 381, 2-(2-butoxyphenyl)-4-[(4-methyl-1H-indol-5-yl)amino]thieno[2,3-b]pyridine-5-carbonitrile] | 1980
CCCOc1ccccc1-c1cc2c(Nc3ccc4[nH]ccc4c3C)c(C#N)cnc2s1 [Compound 382, 4-[(4-methyl-1H-indol-5-yl)amino]-2-(2-propoxyphenyl)thieno[2,3-b]pyridine-5-carbonitrile] | 570
Cc1c(Nc2c(C#N)cnc3sc(-c4ccccc4OCCCN(C)C)cc23)ccc2[nH]ccc12 [Compound 383, 2-{2-[3-(dimethylamino)propoxy]phenyl}-4-[(4-methyl-1H-indol-5-yl)amino]thieno[2,3-b]pyridine-5-carbonitrile] | 64
CCCOc1ccc(CN(C)C)cc1-c1cc2c(Nc3ccc4[nH]ccc4c3C)c(C#N)cnc2s1 [Compound 384, 2-{5-[(dimethylamino)methyl]-2-propoxyphenyl}-4-[(4-methyl-1H-indol-5-yl)amino]thieno[2,3-b]pyridine-5-carbonitrile] | 93

Structure (SMILES) | IC50 [nM]
CCOc1ccc2cc(-c3cc4c(Nc5ccc6[nH]ccc6c5C)c(C#N)cnc4s3)ccc2c1 [Compound 385, 2-(6-ethoxy-2-naphthyl)-4-[(4-methyl-1H-indol-5-yl)amino]thieno[2,3-b]pyridine-5-carbonitrile] | > 30000
Cc1c(Nc2c(C#N)cnc3sc(-c4cncc(C=O)c4)cc23)ccc2[nH]ccc12 [Compound 387, 2-(5-formylpyridin-3-yl)-4-[(4-methyl-1H-indol-5-yl)amino]thieno[2,3-b]pyridin-5-carbonitrile] | 2
Cc1c(Nc2c(C#N)cnc3sc(-c4ccccc4F)cc23)ccc2[nH]ccc12 [Compound 388, 2-(2-fluorophenyl)-4-[(4-methyl-1H-indol-5-yl)amino]thieno[2,3-b]pyridine-5-carbonitrile] | 118
Cc1c(Nc2c(C#N)cnc3sc(-c4cc(C=O)ccc4F)cc23)ccc2[nH]ccc12 [Compound 389, 2-(2-fluoro-5-formylphenyl)-4-[(4-methyl-1H-indol-5-yl)amino]thieno[2,3-b]pyridine-5-carbonitrile] | 18
Cc1c(Nc2c(C#N)cnc3sc(-c4cccc(N(C)CCN(C)C)c4)cc23)ccc2[nH]ccc12 [Compound 390, 2-(3-{[2-(dimethylamino)ethyl](methyl)amino}phenyl)-4-[(4-methyl-1H-indol-5-yl)amino]thieno[2,3-b]pyridine-5-carbonitrile] | 43
Cc1c(Nc2c(C#N)cnc3sc(-c4ccc(N(C)C)nc4)cc23)ccc2[nH]ccc12 [Compound 391, 2-[6-(dimethylamino)pyridin-3-yl]-4-[(4-methyl-1H-indol-5-yl)amino]thieno[2,3-b]pyridine-5-carbonitrile] | 86
COCc1ccccc1-c1cc2c(Nc3ccc4[nH]ccc4c3C)c(C#N)cnc2s1 [Compound 392, 2-[2-(methoxymethyl)phenyl]-4-[(4-methyl-1H-indol-5-yl)amino]thieno[2,3-b]pyridine-5-carbonitrile] | 177
Cc1c(Nc2c(C#N)cnc3sc(-c4cccc(NCCN(C)C)c4)cc23)ccc2[nH]ccc12 [Compound 394, 2-(3-{[2-(dimethylamino)ethyl]amino}phenyl)-4-[(4-methyl-1H-indol-5-yl)amino]thieno[2,3-b]pyridine-5-carbonitrile] | 10
Cc1c(Nc2c(C#N)cnc3sc(-c4cnc(N5CCCCC5)nc4)cc23)ccc2[nH]ccc12 [Compound 395, 4-[(4-methyl-1H-indol-5-yl)amino]-2-(2-piperidin-1-ylpyrimidin-5-yl)thieno[2,3-b]pyridine-5-carbonitrile] | 281
Cc1c(Nc2c(C#N)cnc3sc(-c4cnc(N5CCCC5)nc4)cc23)ccc2[nH]ccc12 [Compound 396, 4-[(4-methyl-1H-indol-5-yl)amino]-2-(2-pyrrolidin-1-ylpyrimidin-5-yl)thieno[2,3-b]pyridine-5-carbonitrile] | 156
Cc1c(Nc2c(C#N)cnc3sc(-c4ccc(N5CCCCC5)nc4)cc23)ccc2[nH]ccc12 [Compound 397, 4-[(4-methyl-1H-indol-5-yl)amino]-2-(6-piperidin-1-ylpyridin-3-yl)thieno[2,3-b]pyridine-5-carbonitrile] | 292
Cc1c(Nc2c(C#N)cnc3sc(-c4ccccc4CO)cc23)ccc2[nH]ccc12 [Compound 398, 2-[2-(hydroxymethyl)phenyl]-4-[(4-methyl-1H-indol-5-yl)amino]thieno[2,3-b]pyridine-5-carbonitrile] | 75
Cc1c(Nc2c(C#N)cnc3sc(-c4ccccc4OCCN(C)C)cc23)ccc2[nH]ccc12 [Compound 399, 2-{2-[2-(dimethylamino)ethoxy]phenyl}-4-[(4-methyl-1H-indol-5-yl)amino]thieno[2,3-b]pyridine-5-carbonitrile] | 1
N#Cc1cnc2sc(/C=C/c3ccccc3)cc2c1Nc1ccc2[nH]ccc2c1 [Compound 400, 4-(1H-indol-5-ylamino)-2-[(E)-2-phenylvinyl]thieno[2,3-b]pyridine-5-carbonitrile] | 437
N#Cc1cnc2sc(/C=C/c3ccc(F)cc3)cc2c1Nc1ccc2[nH]ccc2c1 [Compound 401, 2-[(E)-2-(4-fluorophenyl)vinyl]-4-(1H-indol-5-ylamino)thieno[2,3-b]pyridine-5-carbonitrile] | 2450
N#Cc1cnc2sc(/C=C/c3cccc(F)c3)cc2c1Nc1ccc2[nH]ccc2c1 [Compound 402, 2-[(E)-2-(3-fluorophenyl)vinyl]-4-(1H-indol-5-ylamino)thieno[2,3-b]pyridine-5-carbonitrile] | 465
N#Cc1cnc2sc(/C=C/CCO)cc2c1Nc1ccc2[nH]ccc2c1 [Compound 403, 2-[(1E)-4-hydroxybut-1-en-1-yl]-4-(1H-indol-5-ylamino)thieno[2,3-b]pyridine-5-carbonitrile] | 394
